Activity calls are given as the source filed them.
Experiments:
[1] = target: Chaperone protein dnaK (Escherichia coli, UniProt C3TRK2); assay: E. coli DnaK binders, calorimetric Kd – biophysical, isothermal titration calorimetry, beta-domain, full-length DnaK, orthogonal assay for DnaK modulator project, SAR follow-up (AID 1495)
[2] = test system: Vibrio harveyi; assay: LuxS/LuxPQ-dependent luminescence inhibition, V. harveyi – dry powder, set 2, dose response (AID 493072); format: functional, organism-based
[3] = test system: Vibrio harveyi; assay: Quorum Sensing, LuxS, LuxPQ Measured in Microorganism System Using Plate Reader - 2035-01_Inhibitor_DoseNoFile_DryPowder_Activity. [Related pubchem assays (depositor defined):AID2106]; format: functional, organism-based
[4] = target: Mucolipin-3 (Homo sapiens, UniProt Q8TDD5); assay: Dose response cell-based high-throughput screening assay for agonists of the transient receptor potential channel ML3 (TRPML3). [Related pubchem assays: 1526, 1424, 1448 ]; format: functional
[5] = target: Ion channel NompC (Danio rerio, UniProt Q7T1G6); assay: Fluorescence counterscreen assay for TRPML3 agonists: dose response cell-based high-throughput screening assay to identify agonists of the transient receptor potential channel N1 (TRPN1). [Related pubchem assays: 1526, 1424, 1448 ]; format: functional
[6] = test system: H9c2; assay: cells; format: functional, cell-based; details: Rattus norvegicus, H9c2, Myocardium;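 further: confirmatory concentration-response retest of ultra-high-throughput screening hits for modulation of myocardial damage; cell death induced by hydrogen peroxide oxidative stress; compound pretreatment for 60 min then peroxide exposure for 2 h; potency is for protecting the cells against peroxide damage rather than for killing them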
[7] = target: 5-hydroxytryptamine receptor 1A (Homo sapiens, UniProt P08908); format: functional
[8] = target: Lysosomal acid glucosylceramidase (Homo sapiens, UniProt P04062); assay: Dose response cell-based high throughput screening assay to identify enhancers of beta-glucosidase activity. [Related pubchem assays: 784 ]; format: functional
[9] = target: T1, Alkaline phosphatase, tissue-nonspecific isozyme (Homo sapiens, UniProt P05186)
T1 sequence (P05186 whole entry): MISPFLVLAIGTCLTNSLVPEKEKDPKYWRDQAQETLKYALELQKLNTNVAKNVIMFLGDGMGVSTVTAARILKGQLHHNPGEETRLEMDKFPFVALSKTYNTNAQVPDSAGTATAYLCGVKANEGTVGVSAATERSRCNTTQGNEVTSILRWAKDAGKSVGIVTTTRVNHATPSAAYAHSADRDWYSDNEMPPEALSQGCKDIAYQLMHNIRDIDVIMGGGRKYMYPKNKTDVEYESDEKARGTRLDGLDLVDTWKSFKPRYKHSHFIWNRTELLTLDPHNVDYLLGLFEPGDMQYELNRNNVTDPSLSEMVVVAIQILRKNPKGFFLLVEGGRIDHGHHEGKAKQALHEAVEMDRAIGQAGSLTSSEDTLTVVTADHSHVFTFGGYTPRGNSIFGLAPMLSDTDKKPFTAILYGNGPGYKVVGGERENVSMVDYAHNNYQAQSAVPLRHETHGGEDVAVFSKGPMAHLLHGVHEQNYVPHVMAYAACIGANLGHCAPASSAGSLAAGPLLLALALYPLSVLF

[10] = test system: HeLa; assay: Cytotoxicity counterscreen assay for transcriptional activators of heat shock protein 70 (Hsp70). [Related pubchem assays: 1203, 1252 ]; format: functional; details: Homo sapiens;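 further: cells exposed to compound for 16 hours before readout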
[11] = target: Sphingosine 1-phosphate receptor 2 (Homo sapiens, UniProt O95136); assay: Dose Response Cell Based Assay for Agonists of the S1P2 Receptor of Purchased Analogues. [Related pubchem assays: 729, 843, 854, 736 ]; format: functional
[12] = MIN6 cell viability loss – mouse insulinoma, cytotoxicity control, dose response (AID 2122); format: functional;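 further: confirmatory high-throughput counterscreen run to flag cytotoxic compounds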
[13] = target: T2, NADPH oxidase 1 (Homo sapiens, UniProt Q9Y5S8); assay: Luminescence-based cell-based dose response assay to identify inhibitors of NADPH oxidase 1 (NOX1).; format: functional
T2 sequence (Q9Y5S8 whole entry): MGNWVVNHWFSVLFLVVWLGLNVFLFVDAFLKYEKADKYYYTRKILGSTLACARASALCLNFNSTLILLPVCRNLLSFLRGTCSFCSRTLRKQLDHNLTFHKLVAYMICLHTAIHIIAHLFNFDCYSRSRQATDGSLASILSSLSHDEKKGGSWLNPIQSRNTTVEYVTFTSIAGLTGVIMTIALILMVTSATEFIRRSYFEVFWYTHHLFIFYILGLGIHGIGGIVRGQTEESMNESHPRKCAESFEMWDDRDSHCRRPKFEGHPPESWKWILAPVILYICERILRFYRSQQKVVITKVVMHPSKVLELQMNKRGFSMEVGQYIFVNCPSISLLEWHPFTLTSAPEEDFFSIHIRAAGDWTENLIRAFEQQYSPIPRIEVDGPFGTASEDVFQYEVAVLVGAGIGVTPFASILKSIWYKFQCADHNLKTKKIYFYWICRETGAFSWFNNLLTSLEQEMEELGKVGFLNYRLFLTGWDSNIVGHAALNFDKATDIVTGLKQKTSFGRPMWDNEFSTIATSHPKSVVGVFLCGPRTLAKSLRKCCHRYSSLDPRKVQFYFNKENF

[14] = target: T2, NADPH oxidase 1; format: functional, cell-based
[15] = target: T3, Rac GTPase-activating protein 1 (Homo sapiens, UniProt Q9H0H5); assay: blockers of MgcRacGAP-driven Rac1 GTP hydrolysis – biochemical, ADP Hunter fluorescence, primary and confirmatory, confirmation (AID 624330); format: functional
T3 sequence (Q9H0H5 whole entry): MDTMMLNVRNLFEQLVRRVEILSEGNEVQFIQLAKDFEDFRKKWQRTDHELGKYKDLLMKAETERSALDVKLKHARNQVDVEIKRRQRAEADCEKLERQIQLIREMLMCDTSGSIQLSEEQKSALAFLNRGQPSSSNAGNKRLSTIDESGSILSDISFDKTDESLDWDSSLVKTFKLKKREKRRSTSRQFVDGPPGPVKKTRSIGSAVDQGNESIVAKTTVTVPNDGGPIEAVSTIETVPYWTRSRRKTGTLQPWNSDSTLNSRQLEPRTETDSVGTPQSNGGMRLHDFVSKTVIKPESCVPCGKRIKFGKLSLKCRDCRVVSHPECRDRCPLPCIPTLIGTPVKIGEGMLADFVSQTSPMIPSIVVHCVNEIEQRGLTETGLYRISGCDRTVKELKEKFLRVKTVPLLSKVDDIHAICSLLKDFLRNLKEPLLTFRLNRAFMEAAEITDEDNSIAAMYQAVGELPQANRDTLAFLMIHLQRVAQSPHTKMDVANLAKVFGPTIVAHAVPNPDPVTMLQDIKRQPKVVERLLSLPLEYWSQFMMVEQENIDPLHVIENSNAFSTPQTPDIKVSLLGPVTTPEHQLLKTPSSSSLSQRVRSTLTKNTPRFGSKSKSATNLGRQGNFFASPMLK

[16] = decrease of insulin promoter-GFP reporter – imaging, high-content screening, mouse beta cells (AID 1628); format: functional; details: MIN6
[17] = target: T4, Dual specificity protein phosphatase 6 (Rattus norvegicus, UniProt Q64346)
T4 sequence (Q64346 whole entry): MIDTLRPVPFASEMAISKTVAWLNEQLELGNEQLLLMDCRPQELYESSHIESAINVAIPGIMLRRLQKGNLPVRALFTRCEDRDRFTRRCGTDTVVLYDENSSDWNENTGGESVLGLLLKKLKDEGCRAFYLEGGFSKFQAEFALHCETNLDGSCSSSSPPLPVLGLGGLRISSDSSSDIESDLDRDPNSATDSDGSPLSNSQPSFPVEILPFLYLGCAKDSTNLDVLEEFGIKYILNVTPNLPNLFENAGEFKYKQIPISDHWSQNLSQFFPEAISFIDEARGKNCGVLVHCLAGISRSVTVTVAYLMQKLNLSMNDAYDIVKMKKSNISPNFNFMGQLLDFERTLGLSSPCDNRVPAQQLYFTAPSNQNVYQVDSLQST

[18] = target: Glyceraldehyde-3-phosphate dehydrogenase (Homo sapiens, UniProt P04406)
[19] = target: Heat shock 70 kDa protein 1A (Homo sapiens, UniProt P0DMV8); assay: inhibition of Hsp70 binding activity – biochemical, fluorescence polarization, SAR follow-up (AID 1072)
[20] = target: Heat shock cognate 71 kDa protein (Homo sapiens, UniProt P11142); assay: In Vitro Hsc70 Dose Response Fluorescence Polarization Assay. [Related pubchem assays: 1072 ]
[21] = target: T4, Dual specificity protein phosphatase 6; format: functional
[22] = target: T5, Tyrosine-protein phosphatase non-receptor type 7 (Homo sapiens, UniProt P35236); format: functional
T5 sequence (P35236 whole entry): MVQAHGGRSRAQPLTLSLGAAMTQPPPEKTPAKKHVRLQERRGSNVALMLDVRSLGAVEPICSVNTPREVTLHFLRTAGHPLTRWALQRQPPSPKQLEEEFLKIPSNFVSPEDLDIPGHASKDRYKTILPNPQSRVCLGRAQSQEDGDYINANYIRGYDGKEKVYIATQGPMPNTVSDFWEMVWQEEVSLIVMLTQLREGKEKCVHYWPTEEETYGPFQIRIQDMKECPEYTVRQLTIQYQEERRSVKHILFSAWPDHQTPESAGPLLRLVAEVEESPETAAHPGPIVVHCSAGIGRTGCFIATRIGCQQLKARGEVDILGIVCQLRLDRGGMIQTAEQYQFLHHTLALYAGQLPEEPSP

[23] = target: T5, Tyrosine-protein phosphatase non-receptor type 7; assay: redox-active compounds inhibiting HePTP phosphatase – biochemical, fluorescence, mechanism study (AID 2068); format: functional
[24] = target: T6, Dual specificity protein phosphatase 3 (Homo sapiens, UniProt P51452); assay: MOA VHR1 Fluorescent secondary assay for identification of redox-state modulating compounds. [Related pubchem assays (depositor defined):AID1654, AID1661, AID1878, AID1957]
[25] = target: T7, Short transient receptor potential channel 4 (Mus musculus, UniProt Q9QUQ5); assay: calcium entry via TRPC4 opening agents – cell-based, HEK293 TRPC4/mu-opioid, Fluo-4 calcium, dose response (AID 434937); format: functional
T7 sequence (Q9QUQ5 whole entry): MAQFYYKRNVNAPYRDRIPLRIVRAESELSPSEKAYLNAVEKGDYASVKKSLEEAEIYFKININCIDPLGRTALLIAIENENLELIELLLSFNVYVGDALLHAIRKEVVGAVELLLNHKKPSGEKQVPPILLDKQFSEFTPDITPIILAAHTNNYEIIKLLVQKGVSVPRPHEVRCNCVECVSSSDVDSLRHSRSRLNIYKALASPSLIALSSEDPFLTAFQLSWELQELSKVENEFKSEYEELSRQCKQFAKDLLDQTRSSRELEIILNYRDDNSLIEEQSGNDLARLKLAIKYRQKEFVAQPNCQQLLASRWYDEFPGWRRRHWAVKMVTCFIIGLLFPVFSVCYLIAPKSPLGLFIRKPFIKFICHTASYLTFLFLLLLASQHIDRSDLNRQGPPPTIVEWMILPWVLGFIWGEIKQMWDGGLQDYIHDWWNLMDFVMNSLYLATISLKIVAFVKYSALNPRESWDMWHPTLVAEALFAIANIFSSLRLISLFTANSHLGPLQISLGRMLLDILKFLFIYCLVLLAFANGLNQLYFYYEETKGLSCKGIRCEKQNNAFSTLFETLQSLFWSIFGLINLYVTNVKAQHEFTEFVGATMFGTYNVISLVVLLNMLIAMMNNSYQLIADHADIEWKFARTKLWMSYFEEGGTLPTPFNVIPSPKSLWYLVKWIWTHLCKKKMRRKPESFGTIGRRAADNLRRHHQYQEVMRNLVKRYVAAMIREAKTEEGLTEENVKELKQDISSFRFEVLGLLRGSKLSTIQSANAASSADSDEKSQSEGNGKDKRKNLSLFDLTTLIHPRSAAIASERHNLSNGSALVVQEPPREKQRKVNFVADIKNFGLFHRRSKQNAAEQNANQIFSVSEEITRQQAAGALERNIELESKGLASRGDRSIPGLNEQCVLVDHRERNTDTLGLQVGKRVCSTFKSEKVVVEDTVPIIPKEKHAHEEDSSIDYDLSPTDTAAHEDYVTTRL

[26] = target: T6, Dual specificity protein phosphatase 3; assay: SAR VHR1 Fluorescent Assay for In Vitro dose response studies. [Related pubchem assays (depositor defined):AID1654, AID1661, AID1878, AID1992, AID2004, AID2070, AID2085]; format: functional

Glyceraldehyde-3-phosphate dehydrogenase, sequence (P04406 whole entry): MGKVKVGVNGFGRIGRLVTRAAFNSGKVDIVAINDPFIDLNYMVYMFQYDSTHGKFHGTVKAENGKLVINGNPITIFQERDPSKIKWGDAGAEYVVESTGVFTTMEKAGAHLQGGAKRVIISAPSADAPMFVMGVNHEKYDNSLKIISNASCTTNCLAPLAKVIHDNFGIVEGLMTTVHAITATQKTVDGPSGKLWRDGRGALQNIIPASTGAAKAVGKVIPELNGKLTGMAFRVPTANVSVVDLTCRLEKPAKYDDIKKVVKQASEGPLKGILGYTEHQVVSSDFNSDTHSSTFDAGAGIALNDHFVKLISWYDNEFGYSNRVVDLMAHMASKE
T6 sequence (P51452 whole entry): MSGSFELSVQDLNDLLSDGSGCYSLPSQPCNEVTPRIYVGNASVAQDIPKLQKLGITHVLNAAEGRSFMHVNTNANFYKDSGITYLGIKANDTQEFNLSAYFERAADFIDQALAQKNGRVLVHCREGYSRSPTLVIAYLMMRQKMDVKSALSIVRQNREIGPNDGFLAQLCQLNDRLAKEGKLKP
Sphingosine 1-phosphate receptor 2, sequence (O95136 whole entry): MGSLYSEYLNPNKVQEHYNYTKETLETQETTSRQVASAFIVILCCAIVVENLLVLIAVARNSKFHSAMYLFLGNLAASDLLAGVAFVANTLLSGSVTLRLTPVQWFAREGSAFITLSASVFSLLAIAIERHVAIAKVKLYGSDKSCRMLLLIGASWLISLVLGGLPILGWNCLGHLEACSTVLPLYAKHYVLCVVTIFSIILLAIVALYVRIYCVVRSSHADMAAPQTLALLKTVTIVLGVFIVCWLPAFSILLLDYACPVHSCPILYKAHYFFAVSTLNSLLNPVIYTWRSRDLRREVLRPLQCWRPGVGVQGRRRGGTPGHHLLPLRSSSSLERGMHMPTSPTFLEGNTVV
5-hydroxytryptamine receptor 1A, sequence (P08908 whole entry): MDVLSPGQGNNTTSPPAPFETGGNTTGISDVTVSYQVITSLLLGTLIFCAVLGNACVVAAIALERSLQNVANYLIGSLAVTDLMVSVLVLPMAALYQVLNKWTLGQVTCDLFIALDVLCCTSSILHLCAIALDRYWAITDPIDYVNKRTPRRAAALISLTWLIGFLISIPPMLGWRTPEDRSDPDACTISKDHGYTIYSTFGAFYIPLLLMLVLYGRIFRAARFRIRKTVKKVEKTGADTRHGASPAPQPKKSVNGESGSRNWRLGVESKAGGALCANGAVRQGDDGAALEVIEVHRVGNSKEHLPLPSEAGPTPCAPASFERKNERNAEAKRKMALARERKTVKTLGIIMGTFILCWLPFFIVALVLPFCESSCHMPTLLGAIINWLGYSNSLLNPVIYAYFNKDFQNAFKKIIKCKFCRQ
Heat shock cognate 71 kDa protein, sequence (P11142 whole entry): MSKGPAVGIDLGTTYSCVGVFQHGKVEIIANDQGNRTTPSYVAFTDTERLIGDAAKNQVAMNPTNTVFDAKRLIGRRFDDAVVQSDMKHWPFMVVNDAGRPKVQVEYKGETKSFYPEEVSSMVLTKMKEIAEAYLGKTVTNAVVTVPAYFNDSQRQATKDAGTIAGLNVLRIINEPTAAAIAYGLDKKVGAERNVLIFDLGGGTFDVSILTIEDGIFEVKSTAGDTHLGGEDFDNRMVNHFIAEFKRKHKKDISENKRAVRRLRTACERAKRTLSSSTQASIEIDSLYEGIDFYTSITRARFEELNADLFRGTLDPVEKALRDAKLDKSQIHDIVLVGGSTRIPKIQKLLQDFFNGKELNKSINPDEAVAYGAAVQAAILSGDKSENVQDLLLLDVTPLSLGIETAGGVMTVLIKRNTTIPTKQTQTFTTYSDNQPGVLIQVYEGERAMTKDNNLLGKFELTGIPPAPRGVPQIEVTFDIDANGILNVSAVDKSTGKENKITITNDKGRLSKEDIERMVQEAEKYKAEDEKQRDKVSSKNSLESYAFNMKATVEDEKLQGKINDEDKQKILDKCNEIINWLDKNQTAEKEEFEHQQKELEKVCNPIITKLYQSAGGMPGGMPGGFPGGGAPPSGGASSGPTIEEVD
Heat shock 70 kDa protein 1A, sequence (P0DMV8 whole entry): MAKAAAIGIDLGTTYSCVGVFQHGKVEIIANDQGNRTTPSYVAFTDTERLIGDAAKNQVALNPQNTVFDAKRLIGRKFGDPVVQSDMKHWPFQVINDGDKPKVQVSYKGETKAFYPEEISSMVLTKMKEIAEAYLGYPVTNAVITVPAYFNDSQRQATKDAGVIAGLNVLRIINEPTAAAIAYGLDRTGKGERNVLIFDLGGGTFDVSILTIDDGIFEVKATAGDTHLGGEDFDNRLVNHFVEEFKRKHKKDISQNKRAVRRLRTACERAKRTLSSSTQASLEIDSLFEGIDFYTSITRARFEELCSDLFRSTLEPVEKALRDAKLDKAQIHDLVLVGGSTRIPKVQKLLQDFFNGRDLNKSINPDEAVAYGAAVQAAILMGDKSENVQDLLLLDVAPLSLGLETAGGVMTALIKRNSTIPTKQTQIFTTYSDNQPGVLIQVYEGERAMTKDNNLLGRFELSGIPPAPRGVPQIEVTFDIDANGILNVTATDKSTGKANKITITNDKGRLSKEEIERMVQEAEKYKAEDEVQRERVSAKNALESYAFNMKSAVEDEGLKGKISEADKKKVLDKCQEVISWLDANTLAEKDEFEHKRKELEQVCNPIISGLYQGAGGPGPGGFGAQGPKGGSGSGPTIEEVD
Lysosomal acid glucosylceramidase, sequence (P04062 whole entry): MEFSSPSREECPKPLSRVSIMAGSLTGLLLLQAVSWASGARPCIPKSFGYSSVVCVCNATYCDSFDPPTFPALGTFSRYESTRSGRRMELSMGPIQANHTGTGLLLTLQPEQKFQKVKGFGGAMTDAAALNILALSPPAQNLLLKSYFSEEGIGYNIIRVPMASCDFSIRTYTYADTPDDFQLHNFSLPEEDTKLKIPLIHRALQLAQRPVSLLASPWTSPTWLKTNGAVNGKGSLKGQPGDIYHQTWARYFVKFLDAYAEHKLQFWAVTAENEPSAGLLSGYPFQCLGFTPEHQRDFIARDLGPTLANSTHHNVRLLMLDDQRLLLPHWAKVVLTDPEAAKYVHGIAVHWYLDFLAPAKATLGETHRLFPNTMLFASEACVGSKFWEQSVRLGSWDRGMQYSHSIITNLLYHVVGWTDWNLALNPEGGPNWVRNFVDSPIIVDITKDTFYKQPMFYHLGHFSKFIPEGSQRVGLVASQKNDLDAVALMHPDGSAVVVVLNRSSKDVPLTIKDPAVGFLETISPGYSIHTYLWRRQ
Ion channel NompC, sequence (Q7T1G6 whole entry): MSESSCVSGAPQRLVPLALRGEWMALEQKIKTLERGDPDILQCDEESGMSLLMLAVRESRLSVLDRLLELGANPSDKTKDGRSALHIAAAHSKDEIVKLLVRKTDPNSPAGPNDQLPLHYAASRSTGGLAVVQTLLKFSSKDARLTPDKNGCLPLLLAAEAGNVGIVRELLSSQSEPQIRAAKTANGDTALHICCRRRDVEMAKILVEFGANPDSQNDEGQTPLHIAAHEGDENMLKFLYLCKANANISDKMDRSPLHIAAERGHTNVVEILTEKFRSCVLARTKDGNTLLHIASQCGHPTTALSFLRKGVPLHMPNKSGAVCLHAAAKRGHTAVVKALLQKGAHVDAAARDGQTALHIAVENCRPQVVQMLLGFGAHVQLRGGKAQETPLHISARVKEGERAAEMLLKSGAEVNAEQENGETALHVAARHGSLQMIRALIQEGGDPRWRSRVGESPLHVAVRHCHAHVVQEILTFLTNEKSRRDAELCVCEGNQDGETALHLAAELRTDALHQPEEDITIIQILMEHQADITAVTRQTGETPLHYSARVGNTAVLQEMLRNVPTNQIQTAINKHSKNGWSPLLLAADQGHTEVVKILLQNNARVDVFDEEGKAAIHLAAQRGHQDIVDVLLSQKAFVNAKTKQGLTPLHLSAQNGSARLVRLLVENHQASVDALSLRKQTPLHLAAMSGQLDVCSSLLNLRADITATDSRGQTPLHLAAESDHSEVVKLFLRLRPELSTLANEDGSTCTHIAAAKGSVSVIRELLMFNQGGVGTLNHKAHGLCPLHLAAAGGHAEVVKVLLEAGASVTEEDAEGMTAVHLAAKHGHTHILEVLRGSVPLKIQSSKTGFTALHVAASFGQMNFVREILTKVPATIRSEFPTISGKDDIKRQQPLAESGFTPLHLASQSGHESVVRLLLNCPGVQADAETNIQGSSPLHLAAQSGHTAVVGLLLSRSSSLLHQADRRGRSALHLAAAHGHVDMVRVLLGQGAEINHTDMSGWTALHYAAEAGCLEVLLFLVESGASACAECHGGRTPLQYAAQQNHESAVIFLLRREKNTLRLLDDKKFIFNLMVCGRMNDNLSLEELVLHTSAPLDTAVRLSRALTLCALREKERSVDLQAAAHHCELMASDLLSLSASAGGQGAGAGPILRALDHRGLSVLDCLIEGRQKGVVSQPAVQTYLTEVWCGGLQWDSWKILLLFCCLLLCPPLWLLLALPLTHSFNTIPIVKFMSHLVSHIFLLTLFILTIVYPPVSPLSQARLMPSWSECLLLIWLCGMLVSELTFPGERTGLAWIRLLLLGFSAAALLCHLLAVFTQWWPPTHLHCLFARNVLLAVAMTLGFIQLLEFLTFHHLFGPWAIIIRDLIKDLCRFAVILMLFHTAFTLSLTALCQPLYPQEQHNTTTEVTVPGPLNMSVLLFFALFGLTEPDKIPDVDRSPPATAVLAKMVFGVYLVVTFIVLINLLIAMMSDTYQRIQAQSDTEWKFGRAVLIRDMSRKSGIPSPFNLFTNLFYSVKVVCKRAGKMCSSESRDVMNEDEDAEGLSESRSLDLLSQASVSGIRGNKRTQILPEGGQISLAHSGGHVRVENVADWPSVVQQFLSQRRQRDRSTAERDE

In the case of `O=C(NCc1ccc(Cl)c(Cl)c1)c1cccs1`, the Kd [1] is reported as 7.3 µM (active).

In the case of `C=Cn1c(C(=O)O)ccc1-c1ccc(CC)cc1`, the AC50 [2] is reported as 5.53 µM (active), the AC50 ([2]; Vibrio harveyi) is reported as 4.66 µM (active) and the AC50 [3] is reported as 2.73 µM (active).

With `CSc1nsc(SC)c1C(=O)N1CCN(S(=O)(=O)c2ccc(C)cc2)C1C(C)C` (stereo unspecified) the EC50 [4] was 10.5 µM (not active), the EC50 [5] was > 29.9 µM (not active) and the IC50 [6] was > 79 µM (inactive).

For `CCc1ccc(NC(=O)Cn2c(SC)nc3ccccc32)cc1`, the EC50 [7] was > 50 µM (not active) and the EC50 [8] was > 50 µM (not active).

With `Cc1ccc(O)c(-c2cc(C(=O)NCc3ccccc3)[nH]n2)c1` the EC50 [9] was > 100 µM (not active).

For `COc1ccc(C(CNC(=O)c2cc3ccccc3o2)N2CCCCC2)cc1` (stereo unspecified), the CC50 [10] was > 99 µM (not active).

In the case of `COc1ccc(NC(=O)CN(C)CC(=O)c2cc(C)n(Cc3ccccc3)c2C)cc1`, the EC50 [11] is reported as > 30 µM (not active).

For `COc1ccc2c(c1)Sc1ccccc1N2`, the IC50 [12] was 1.63 µM (active), the IC50 [13] was > 20 µM (not active) and the IC50 [14] was 935 nM (active). The IC50 [15] was 28.8 µM (active) and the IC50 [16] was 2.01 µM (active).

With `O=C(O)C1Nc2c(I)cccc2C2C=CCC12` (stereo unspecified) the IC50 [17] was > 100 µM (inactive), the IC50 [18] was 47.8 µM (active) and the IC50 [19] was 3.13 µM (active). The IC50 [20] was 14.1 µM (active), the IC50 [21] was > 100 µM (inactive) and the IC50 [22] was 71.4 µM (active).

For `Cc1cc2nc3s/c(=C/c4ccc(-c5ccccc5C(=O)O)o4)c(=O)n3c2cc1C`, the IC50 [23] was 2.65 µM (active), the IC50 [17] was 9 µM (active) and the IC50 [18] was > 100 µM (not active). For the same compound, the IC50 [24] was 2.39 µM (active), the EC50 [25] was 5.96 µM (active) and the IC50 [21] was 26.4 µM (active). For the same compound, the IC50 [22] was 3.63 µM (active) and the IC50 [26] was 7.49 µM (active).

Reference: ChEMBL document CHEMBL1201862, “PubChem BioAssay data set” (2004)
